Results published in paper PMC6201879, “N-substituted phenylbenzamides of the niclosamide chemotype attenuate obesity related changes in high fat diet fed mice” (PLoS ONE, 2018).
Read-outs that look alike come from different tables or passages of the source.

How the values were obtained:
[1] = tested on: phospho-AMPK Thr-172 (p-AMPK); experiment: Western blot of phospho-AMPK Thr-172 in HEK293T cells; format: cell-based, human; conditions: 1 and 10μM, negatives re-screened at 5 and 20 μM, 3 hours
Procedure: AMPK is a metabolic sensor that maintains cellular energy supply. As validation of these changes in lipid metabolism and cellular respiration we evaluated phospho-AMPK Thr-172 (p-AMPK) levels by Western blot in HEK293 cells treated with the phenylbenzamide derivatives. Compounds were screened at 1 and 10μM using the known uncouplers niclosamide and FCCP as positive controls (Fig 4A). […] We concluded that compounds that had little effect on oxygen consumption rates also had little effect on phosphorylation of AMPK.

[2] = tested on: Salmonella typhimurium TA1535; conditions: for Mean Revertant Colony Counts TA-1535 SP9+: with S9; for Mean Revertant Colony Counts TA-1535 S9-: without S9
[3] = tested on: Salmonella typhimurium TA1537; conditions: for Mean Revertant Colony Counts TA-1537 SP9+: with S9; for Mean Revertant Colony Counts TA-1537 S9-: without S9
[4] = any concentration tested, vs negative control

CC(C)(C)c1ccc(O)c(C(=O)Nc2ccc(C(=O)O)cc2C(F)(F)F)c1 [Compound 500873, 4-[(5-tert-butyl-2-hydroxy)amido]-3-(trifluoromethyl)benzoic acid]
phosphorylation of AMPK (p-AMPK Thr-172) by Western blot [1]: no detectable changes in pAMPK levels

CC(C)(C)c1cc(C(=O)Nc2ccc(C(=O)O)cc2Cl)c(O)c(C(C)(C)C)c1 [Compound 600453, 3-Chloro-4-[(3,5-di-tert-butyl-2-hydroxybenzene)amido]benzoic acid]
Mean Revertant Colony Counts TA-1535 SP9+ ([2]; 1.5 ug/Well): 2.7
Mean Revertant Colony Counts TA-1535 S9- ([2]; 1.5 ug/Well): 4.0
Mean Revertant Colony Counts TA-1535 SP9+ ([2]; 4 ug/Well): 3.7
Mean Revertant Colony Counts TA-1535 S9- ([2]; 4 ug/Well): 3.7
Mean Revertant Colony Counts TA-1535 SP9+ ([2]; 10 ug/Well): 2.7
Mean Revertant Colony Counts TA-1535 S9- ([2]; 10 ug/Well): 1.7
Mean Revertant Colony Counts TA-1535 SP9+ ([2]; 25 ug/Well): 2.3
Mean Revertant Colony Counts TA-1535 S9- ([2]; 25 ug/Well): 2.7
Mean Revertant Colony Counts TA-1535 SP9+ ([2]; 64 ug/Well): 3.0
Mean Revertant Colony Counts TA-1535 S9- ([2]; 64 ug/Well): 1.7
Mean Revertant Colony Counts TA-1535 SP9+ ([2]; 160 ug/Well): 3.3
Mean Revertant Colony Counts TA-1535 S9- ([2]; 160 ug/Well): 4.0
Mean Revertant Colony Counts TA-1535 SP9+ ([2]; 400 ug/Well): 2.0
Mean Revertant Colony Counts TA-1535 S9- ([2]; 400 ug/Well): 2.7
Mean Revertant Colony Counts TA-1535 SP9+ ([2]; 1000 ug/Well): 2.0
Mean Revertant Colony Counts TA-1535 S9- ([2]; 1000 ug/Well): 2.7
fold increase in the mean number of revertant colonies, TA1535 [2, 4]: < 3 fold
Mean Revertant Colony Counts TA-1537 SP9+ ([3]; 1.5 ug/Well): 2.3
Mean Revertant Colony Counts TA-1537 S9- ([3]; 1.5 ug/Well): 0.7
Mean Revertant Colony Counts TA-1537 SP9+ ([3]; 4 ug/Well): 3.3
Mean Revertant Colony Counts TA-1537 S9- ([3]; 4 ug/Well): 1.3
Mean Revertant Colony Counts TA-1537 SP9+ ([3]; 10 ug/Well): 1.7
Mean Revertant Colony Counts TA-1537 S9- ([3]; 10 ug/Well): 2.3
Mean Revertant Colony Counts TA-1537 SP9+ ([3]; 25 ug/Well): 1.7
Mean Revertant Colony Counts TA-1537 S9- ([3]; 25 ug/Well): 1.3
Mean Revertant Colony Counts TA-1537 SP9+ ([3]; 64 ug/Well): 1.0
Mean Revertant Colony Counts TA-1537 S9- ([3]; 64 ug/Well): 0.3
Mean Revertant Colony Counts TA-1537 SP9+ ([3]; 160 ug/Well): 3.3
Mean Revertant Colony Counts TA-1537 S9- ([3]; 160 ug/Well): 0.0
Mean Revertant Colony Counts TA-1537 SP9+ ([3]; 400 ug/Well): 0.7
Mean Revertant Colony Counts TA-1537 S9- ([3]; 400 ug/Well): 1.0
Mean Revertant Colony Counts TA-1537 SP9+ ([3]; 1000 ug/Well): 3.7
Mean Revertant Colony Counts TA-1537 S9- ([3]; 1000 ug/Well): 0.3
fold increase in the mean number of revertant colonies, TA1537 [3, 4]: < 3 fold
